# Values joined by “and” are separate entries in the source; they are usually repeats but may differ in a detail not shown here. Equal entries are not always repeated. Where a SMILES comes first, the peptide text is derived from it. [ ]: non-standard residue; d: D form. Hyp = O=C(O)[C@@H]1C[C@@H](O)CN1
# System: CCL3/MIP-1 alpha
# Assay: Example 8 main study Luminex, LPS hPBMCs: CCL3/MIP-1 alpha
# Assay type: cell-based, human
# Protocol: Human PBMCs were pretreated with YY-101, YDE-011, YDE-043 or reference compound; Xiidra® at various concentration (ranging from […] to 500 nM) for 2 h before stimulation. An equal volume of 0.5% DMSO was used as a vehicle control. Then, the cells were treated with LPS at 5 ug/ml, which was selected based on the pilot study. The supernatants from treated cells were harvested at 24 h and placed in a 96 well for Luminex cytokine & chemokine profiling using a Luminex 200 multiplex assay (Luminex; R&D system, USA).
# The main study arm with triplicate wells per group in a 24-well plate: • 1. Blank • 2. PBMC: 0.5% DMSO • 3. PBMC+LPS (5 ug/ml) • 4. PBMC+YY-101 500 nM • 5. PBMC+YY-101 50 nM • 6. PBMC+YY-101 5 nM • 7. PBMC+YY-101 0.5 nM • 8. PBMC+LPS (5 ug/ml)+Xiidra® 500 nM • 9. PBMC+LPS (5 ug/ml)+Xiidra® 50 nM • 10. PBMC+LPS (5 ug/ml)+Xiidra® 5 nM • 11. PBMC+LPS (5 ug/ml)+Xiidra® 0.5 nM • 12. PBMC+LPS (5 ug/ml)+Xiidra® 0.05 nM • 13. PBMC+LPS (5 ug/ml)+Xiidra® 0.005 nM • 14. PBMC+LPS (5 ug/ml)+YY-101 500 nM • 15. PBMC+LPS (5 ug/ml)+YY-101 50 nM • 16. PBMC+LPS (5 ug/ml)+YY-101 5 nM • 17. PBMC+LPS (5 ug/ml)+YY-101 0.5 nM • 18. PBMC+LPS (5 ug/ml)+YY-101 0.05 nM • 19. PBMC+LPS (5 ug/ml)+YY-101 0.005 nM • 20. PBMC+LPS (5 ug/ml)+YDE-011 500 nM • 21. PBMC+LPS (5 ug/ml)+YDE-011 50 nM • 22. PBMC+LPS (5 ug/ml)+YDE-011 5 nM • 23. PBMC+LPS (5 ug/ml)+YDE-011 0.5 nM • 24. PBMC+LPS (5 ug/ml)+YDE-011 0.05 nM • 25. PBMC+LPS (5 ug/ml)+YDE-011 0.005 nM • 26. PBMC+LPS (5 ug/ml)+YDE-043 500 nM • 27. PBMC+LPS (5 ug/ml)+YDE-043 50 nM • 28. PBMC+LPS (5 ug/ml)+YDE-043 5 nM • 29. PBMC+LPS (5 ug/ml)+YDE-043 0.5 nM • 30. PBMC+LPS (5 ug/ml)+YDE-043 0.05 nM • 31. PBMC+LPS (5 ug/ml)+YDE-043 0.005 nM
# Multiplex assay was used to measure 30 cytokines and chemokines. The 1:200 diluted cell supernatant and serial dilution of the standard were dispensed into a 96 well plate at 50 ul/well. Then, the pre-mixed cocktail of antibody-coated magnetic beads was dispensed at 50 ul/well and incubated at room temperature for 2 h in a horizontal orbital microplate shaker at 800±500 rpm. The beads were washed using a magnetic device to prevent loss. The biotin-antibody was dispensed in 50 ul of each well and incubated at room temperature for 1 h in a shaker at 800±500 rpm. After washing, streptavidin-PE was added at 50 ul/well and incubated at room temperature for 30 min in a shaker under the same conditions. Finally, after washing, wash buffer (100 ul/well) was added to the plate and incubated in a shaker for 2 min. The Luminex™ 200 setting were set according to the manufacturer's protocol. The data was calculated with a standard five-parameter logistic nonlinear regression analysis of the data (xPonent software 4.2, USA). Results were presented as concentration (ng/ml or pg/ml).
# [1] = PBMC + LPS(5 ug/ml) + test article 0.005 nM, Mean
# [2] = PBMC + LPS(5 ug/ml) + test article 0.005 nM, single replicates
# [3] = PBMC + LPS(5 ug/ml) + test article 0.05 nM, Mean
# [4] = PBMC + LPS(5 ug/ml) + test article 0.05 nM, single replicates
# [5] = PBMC + LPS(5 ug/ml) + test article 0.5 nM, Mean
# [6] = PBMC + LPS(5 ug/ml) + test article 0.5 nM, single replicates
# [7] = PBMC + LPS(5 ug/ml) + test article 5 nM, Mean
# [8] = PBMC + LPS(5 ug/ml) + test article 5 nM, single replicates
# [9] = PBMC + LPS(5 ug/ml) + test article 50 nM, Mean
# [10] = PBMC + LPS(5 ug/ml) + test article 50 nM, single replicates
# [11] = PBMC + LPS(5 ug/ml) + test article 500 nM, Mean
# [12] = PBMC + LPS(5 ug/ml) + test article 500 nM, single replicates
# [13] = PBMC + test article 0.5 nM, no LPS, Mean
# [14] = PBMC + test article 0.5 nM, no LPS, single replicates
# [15] = PBMC + test article 5 nM, no LPS, Mean
# [16] = PBMC + test article 5 nM, no LPS, single replicates
# [17] = PBMC + test article 0.05 uM, no LPS, Mean
# [18] = PBMC + test article 0.05 uM, no LPS, single replicates
# [19] = PBMC + test article 50 nM, no LPS, Mean
# [20] = PBMC + test article 50 nM, no LPS, single replicates
# [21] = PBMC + test article 500 nM, no LPS, Mean
# [22] = PBMC + test article 500 nM, no LPS, single replicates
smiles,measurement,setting,value
CC(C)C[C@H](NC(=O)CNC(=O)[C@H](CC(=O)O)NC(=O)[C@H](CCC(N)=O)NC(=O)CNC(=O)[C@@H]1C[C@@H](O)CN1)C(=O)N[C@@H](C)C(=O)NCC(=O)N1CCC[C@H]1C(=O)N[C@@H](CCCCN)C(=O)O [YY-101] (H-[Hyp]GQDGLAGPK-OH; N-terminus and C-terminus assumed),CCL3/MIP-1 alpha Concentration,[1],33793.5 pg/mL
same,CCL3/MIP-1 alpha MFI,[1],46.8
same,CCL3/MIP-1 alpha Concentration,[2],35134.4 pg/mL and 33380.1 pg/mL and 32865.8 pg/mL
same,CCL3/MIP-1 alpha MFI,[2],49.5 and 46.0 and 45.0
same,CCL3/MIP-1 alpha Concentration,[3],36420.8 pg/mL
same,CCL3/MIP-1 alpha MFI,[3],52.2
same,CCL3/MIP-1 alpha Concentration,[4],35866.0 pg/ml (2×) and 37530.4 pg/ml
same,CCL3/MIP-1 alpha MFI,[4],51.0 (2×) and 54.5
same,CCL3/MIP-1 alpha Concentration,[5],34955.7 pg/mL
same,CCL3/MIP-1 alpha MFI,[5],49.2
same,CCL3/MIP-1 alpha Concentration,[6],36107.4 pg/mL and 33380.1 pg/mL and 35379.6 pg/mL
same,CCL3/MIP-1 alpha MFI,[6],51.5 and 46.0 and 50.0
same,CCL3/MIP-1 alpha Concentration,[7],34545.7 pg/mL
same,CCL3/MIP-1 alpha MFI,[7],48.3
same,CCL3/MIP-1 alpha Concentration,[8],33380.1 pg/mL and 35866.0 pg/mL and 34390.9 pg/mL
same,CCL3/MIP-1 alpha MFI,[8],46.0 and 51.0 and 48.0
same,CCL3/MIP-1 alpha Concentration,[9],33677.2 pg/mL
same,CCL3/MIP-1 alpha MFI,[9],46.7
same,CCL3/MIP-1 alpha Concentration,[10],31818.4 pg/mL and 36347.5 pg/mL and 32865.8 pg/mL
same,CCL3/MIP-1 alpha MFI,[10],43.0 and 52.0 and 45.0
same,CCL3/MIP-1 alpha Concentration,[11],33967.7 pg/mL
same,CCL3/MIP-1 alpha MFI,[11],47.2
same,CCL3/MIP-1 alpha Concentration,[12],33635.0 pg/mL and 34887.9 pg/mL and 33380.1 pg/mL
same,CCL3/MIP-1 alpha MFI,[12],46.5 and 49.0 and 46.0
same,CCL3/MIP-1 alpha Concentration,[13],16345.0 pg/mL
same,CCL3/MIP-1 alpha MFI,[13],19.5
same,CCL3/MIP-1 alpha Concentration,[14],15903.7 pg/mL and 16786.4 pg/mL
same,CCL3/MIP-1 alpha MFI,[14],19.0 and 20.0
same,CCL3/MIP-1 alpha Concentration,[15],14259.0 pg/mL
same,CCL3/MIP-1 alpha MFI,[15],17.3
same,CCL3/MIP-1 alpha Concentration,[16],14014.0 pg/mL and 14504.0 pg/mL
same,CCL3/MIP-1 alpha MFI,[16],17.0 and 17.5
same,CCL3/MIP-1 alpha Concentration,[17],13904.3 pg/mL
same,CCL3/MIP-1 alpha MFI,[17],17.0
same,CCL3/MIP-1 alpha Concentration,[18],15903.7 pg/mL and 11904.9 pg/mL
same,CCL3/MIP-1 alpha MFI,[18],19.0 and 15.0
same,CCL3/MIP-1 alpha Concentration,[19],14246.1 pg/mL
same,CCL3/MIP-1 alpha MFI,[19],17.3
same,CCL3/MIP-1 alpha Concentration,[20],13510.6 pg/mL and 14981.7 pg/mL
same,CCL3/MIP-1 alpha MFI,[20],16.5 and 18.0
same,CCL3/MIP-1 alpha Concentration,[21],14014.0 pg/mL
same,CCL3/MIP-1 alpha MFI,[21],17.0
same,CCL3/MIP-1 alpha Concentration,[22],14014.0 pg/mL
same,CCL3/MIP-1 alpha MFI,[22],17.0
same,LPS-induced CCL-3 (in words),"at as low as 5 μM, LPS 5 ug/mL 24 hrs",significantly reduced

# From patent publication US20230146455A1, “TREATMENT OF INFLAMMATORY DISEASES WITH PEPTIDES AND PHARMACEUTICAL COMPOSITIONS” (Yuyu Pharma, Inc., priority 2020, published 2023)
